From patent US6995173B2, “Methods for the treatment of central nervous system disorders in certain patient groups” (R.T. Alamo Ventures I, LLC, priority 2001, dated 2006)

Target: T1, PDE6 partially purified from bovine retinal rod and activated by trypsin (Bos taurus, UniProt P11541+P23439)
T1 construct: from tissue; host or cells: bovine retinal rod
T1 sequence (P11541 2-856 limits assumed): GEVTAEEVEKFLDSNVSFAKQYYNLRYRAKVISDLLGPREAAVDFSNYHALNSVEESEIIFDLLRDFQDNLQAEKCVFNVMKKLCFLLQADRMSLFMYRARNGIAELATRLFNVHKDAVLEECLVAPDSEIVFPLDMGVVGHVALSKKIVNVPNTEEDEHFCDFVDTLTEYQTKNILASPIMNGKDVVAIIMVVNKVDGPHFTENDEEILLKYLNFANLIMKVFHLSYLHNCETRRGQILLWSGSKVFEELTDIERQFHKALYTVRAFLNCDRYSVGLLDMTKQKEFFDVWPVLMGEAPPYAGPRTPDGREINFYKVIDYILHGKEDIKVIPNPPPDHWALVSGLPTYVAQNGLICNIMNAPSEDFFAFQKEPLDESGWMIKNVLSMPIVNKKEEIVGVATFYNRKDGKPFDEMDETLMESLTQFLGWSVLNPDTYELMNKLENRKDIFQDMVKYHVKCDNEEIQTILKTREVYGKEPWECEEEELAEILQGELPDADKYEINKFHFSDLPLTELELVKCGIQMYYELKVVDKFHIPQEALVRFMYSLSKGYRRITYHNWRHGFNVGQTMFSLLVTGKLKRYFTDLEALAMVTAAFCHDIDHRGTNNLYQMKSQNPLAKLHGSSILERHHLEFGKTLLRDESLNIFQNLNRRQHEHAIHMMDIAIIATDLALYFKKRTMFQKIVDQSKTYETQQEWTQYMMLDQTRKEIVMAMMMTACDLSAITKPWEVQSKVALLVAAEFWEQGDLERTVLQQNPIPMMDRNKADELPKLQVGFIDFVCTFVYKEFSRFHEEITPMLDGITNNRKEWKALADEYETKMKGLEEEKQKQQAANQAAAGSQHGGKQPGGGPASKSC
T1 sequence (P23439 2-850 limits assumed): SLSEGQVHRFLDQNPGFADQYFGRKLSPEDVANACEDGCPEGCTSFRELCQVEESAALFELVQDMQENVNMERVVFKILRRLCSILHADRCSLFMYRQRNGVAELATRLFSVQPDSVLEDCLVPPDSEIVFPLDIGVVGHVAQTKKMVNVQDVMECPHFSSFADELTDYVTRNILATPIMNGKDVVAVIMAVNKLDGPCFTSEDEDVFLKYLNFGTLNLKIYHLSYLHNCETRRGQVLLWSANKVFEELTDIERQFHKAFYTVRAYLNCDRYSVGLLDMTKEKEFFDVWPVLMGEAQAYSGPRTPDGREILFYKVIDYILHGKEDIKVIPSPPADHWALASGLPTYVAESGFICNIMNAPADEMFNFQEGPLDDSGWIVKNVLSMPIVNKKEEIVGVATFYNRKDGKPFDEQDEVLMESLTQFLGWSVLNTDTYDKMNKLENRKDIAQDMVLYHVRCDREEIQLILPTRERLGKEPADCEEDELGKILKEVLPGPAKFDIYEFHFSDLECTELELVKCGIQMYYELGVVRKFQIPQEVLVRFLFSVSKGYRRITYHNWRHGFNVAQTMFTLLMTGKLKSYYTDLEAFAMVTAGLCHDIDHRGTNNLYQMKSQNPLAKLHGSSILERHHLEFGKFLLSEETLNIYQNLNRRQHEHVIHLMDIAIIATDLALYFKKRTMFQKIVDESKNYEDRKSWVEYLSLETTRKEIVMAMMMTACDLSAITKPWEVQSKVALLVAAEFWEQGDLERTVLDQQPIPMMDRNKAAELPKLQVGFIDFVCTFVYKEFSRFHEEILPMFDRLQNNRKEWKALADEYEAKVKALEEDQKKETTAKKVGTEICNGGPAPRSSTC
Experiment: PDE6 biochemical enzyme assay ([3H]cGMP hydrolysis, scintillation counting)
Details: Example 2; versus Viagra 0.3 μM

- times more compound on a molar basis than Viagra for such levels of PDE6 inhibition: more than 300 times
Structure (SMILES): Cn1cc([S+](C)[O-])c(=O)c2ccc(F)cc21 (racemic) [Flosequinan, 7-fluoro-1-methyl-3-methylsulphinyl-4-quinolone]
